Like-named read-outs stand apart in the source and are kept apart here.
Tests used:
[1] = in vitro; design: species or system HB2, CCD841; conditions: human, hek293 cells
[2] = target: T1, BSA (Bos taurus, UniProt P02769); design: Intact protein LC/MS covalent labelling, fragments in pools of five, 200 uM each, 4 °C; conditions: 24 h, 4 °C, pool of five; 200 µM; covalent
T1 construct: gene ALB

[3] = target: T2, NUDT7 (Homo sapiens, UniProt P0C024); design: Intact protein LC/MS covalent labelling, fragments in pools of five, 200 uM each, 4 °C; conditions: 24 h, 4 °C, pool of five; 200 µM; covalent
T2 construct: residues 14-235, E. coli, pNIC28-Bsa4, N-terminal His6 tag removed by TEV, construct 26672 Da
T2 sequence (P0C024 14-235): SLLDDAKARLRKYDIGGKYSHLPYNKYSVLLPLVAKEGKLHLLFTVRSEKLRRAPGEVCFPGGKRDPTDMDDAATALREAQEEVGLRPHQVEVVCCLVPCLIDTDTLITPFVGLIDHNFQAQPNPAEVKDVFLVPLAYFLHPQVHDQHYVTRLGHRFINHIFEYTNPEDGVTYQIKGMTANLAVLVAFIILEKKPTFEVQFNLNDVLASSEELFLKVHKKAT

[4] = target: T3, PCAF (Homo sapiens, UniProt Q92831); design: Intact protein LC/MS covalent labelling, fragments in pools of five, 200 uM each, 4 °C; conditions: 24 h, 4 °C, pool of five; 200 µM; covalent
T3 construct: gene KAT2B
T3 sequence (Q92831 whole entry, the tested form may be a part): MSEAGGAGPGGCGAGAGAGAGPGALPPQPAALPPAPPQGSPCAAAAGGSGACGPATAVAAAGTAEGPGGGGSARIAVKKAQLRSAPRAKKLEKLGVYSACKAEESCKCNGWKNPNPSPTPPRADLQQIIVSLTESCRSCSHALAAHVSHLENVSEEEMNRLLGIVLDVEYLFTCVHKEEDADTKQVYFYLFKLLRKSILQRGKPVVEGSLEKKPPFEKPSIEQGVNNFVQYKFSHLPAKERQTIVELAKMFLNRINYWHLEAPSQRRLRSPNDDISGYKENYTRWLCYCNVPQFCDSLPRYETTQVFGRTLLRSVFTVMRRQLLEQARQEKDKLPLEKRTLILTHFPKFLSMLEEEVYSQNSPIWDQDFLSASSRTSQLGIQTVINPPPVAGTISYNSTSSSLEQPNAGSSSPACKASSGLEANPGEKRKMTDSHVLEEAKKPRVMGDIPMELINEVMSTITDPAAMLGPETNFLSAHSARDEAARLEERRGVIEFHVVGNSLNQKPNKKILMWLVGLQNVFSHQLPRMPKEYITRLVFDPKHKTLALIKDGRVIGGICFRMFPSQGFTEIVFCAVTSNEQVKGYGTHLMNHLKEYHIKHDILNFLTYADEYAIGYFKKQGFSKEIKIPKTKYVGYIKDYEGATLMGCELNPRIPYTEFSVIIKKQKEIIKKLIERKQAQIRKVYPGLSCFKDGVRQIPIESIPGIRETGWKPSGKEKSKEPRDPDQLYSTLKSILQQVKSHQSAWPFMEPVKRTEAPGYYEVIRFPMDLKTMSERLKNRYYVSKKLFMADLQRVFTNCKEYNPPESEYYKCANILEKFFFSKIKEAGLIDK

[5] = target: T4, NNMT (hNNMT) (Homo sapiens, UniProt P40261); design: Intact protein LC/MS covalent labelling, fragments in pools of five, 200 uM each, 4 °C; conditions: 24 h, 4 °C, pool of five; 200 µM; covalent
T4 construct: wild type, N-terminal His6 tag kept (no cleavage described), E. coli, construct 31248 Da
T4 sequence (P40261 1-264): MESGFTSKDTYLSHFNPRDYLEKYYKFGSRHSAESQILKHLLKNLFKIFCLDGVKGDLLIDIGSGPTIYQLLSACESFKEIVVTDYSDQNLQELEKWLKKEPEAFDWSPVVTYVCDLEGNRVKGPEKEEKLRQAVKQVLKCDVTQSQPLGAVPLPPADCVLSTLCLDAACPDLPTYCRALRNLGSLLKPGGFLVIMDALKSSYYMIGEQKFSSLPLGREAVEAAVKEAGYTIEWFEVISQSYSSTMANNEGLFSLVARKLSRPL

[6] = in vitro; design: species or system HB2, HEK293; conditions: human, ccd841 cells
[7] = in vitro; design: species or system CCD841, HEK293; conditions: human, hb2 cells, read-out: HB-2 Cells Viability (%)
[8] = target: T5, OTUB2 (OTUB2A) (Homo sapiens, UniProt Q96DC9); design: Intact protein LC/MS covalent labelling, fragments in pools of five, 200 uM each, 4 °C; conditions: 24 h, 4 °C, pool of five; 200 µM; covalent
T5 construct: full length residues 1-234, E. coli BL21(DE3)-R3, His tag removed by TEV, construct 27312 Da
T5 sequence (Q96DC9 1-234): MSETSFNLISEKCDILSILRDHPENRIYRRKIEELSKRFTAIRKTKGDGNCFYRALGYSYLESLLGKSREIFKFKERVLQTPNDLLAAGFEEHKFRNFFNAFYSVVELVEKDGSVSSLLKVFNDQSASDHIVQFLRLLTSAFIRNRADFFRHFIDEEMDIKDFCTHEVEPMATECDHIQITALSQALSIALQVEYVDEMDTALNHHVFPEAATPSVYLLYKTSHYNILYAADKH

T1 sequence (P02769 whole entry, the tested form may be a part): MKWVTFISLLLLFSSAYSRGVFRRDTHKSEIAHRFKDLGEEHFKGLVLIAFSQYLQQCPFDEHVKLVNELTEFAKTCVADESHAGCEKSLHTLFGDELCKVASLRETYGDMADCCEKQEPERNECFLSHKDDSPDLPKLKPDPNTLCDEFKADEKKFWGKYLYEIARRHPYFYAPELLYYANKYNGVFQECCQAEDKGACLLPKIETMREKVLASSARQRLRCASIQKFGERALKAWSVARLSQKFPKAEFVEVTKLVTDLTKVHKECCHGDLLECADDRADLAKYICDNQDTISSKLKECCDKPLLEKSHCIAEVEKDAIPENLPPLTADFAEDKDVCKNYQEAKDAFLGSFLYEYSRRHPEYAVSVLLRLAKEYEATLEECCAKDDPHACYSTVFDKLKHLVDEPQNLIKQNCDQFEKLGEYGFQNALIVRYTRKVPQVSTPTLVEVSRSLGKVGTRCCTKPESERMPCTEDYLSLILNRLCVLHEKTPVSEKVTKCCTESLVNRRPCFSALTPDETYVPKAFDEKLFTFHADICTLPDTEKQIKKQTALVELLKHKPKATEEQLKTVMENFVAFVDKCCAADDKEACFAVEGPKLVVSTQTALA

| Structure (SMILES) | viability at 48 h, 10 µM [1] | BSA [2] | NUDT7 [3] | PCAF [4] | NNMT [5] | viability at 48 h, 10 µM [6] | viability at 48 h, 10 µM [7] | OTUB2 [8] |
| --- | --- | --- | --- | --- | --- | --- | --- | --- |
| N#CC1(NC(=O)CCl)CCCC1 [PCM-0102136] | 44% | 0 | 0 | 0 | 0 | 61.1% | 70% |  |
| Cc1ccccc1CNC(=O)CCl [PCM-0102253] | 93.4% | 0 | 0 | 0 | 0.2 | 86.6% | 99.6% |  |
| O=C(CCl)NC1CCCCCCC1 [PCM-0102318] | 66.1% | 0 | 0 | 0 | 0 | 92.1% | 86.6% |  |
| C=CC(=O)Nc1ccc(N(C)C)cc1 [PCM-0102461] | 81.3% | 0 | 0 | 0 | 0.2 | 111% | 102% |  |
| C=CC(=O)N1CCC(c2nc(C(F)(F)F)c[nH]2)CC1 [PCM-0102513] | 111% | 0 | 0 | 0 | 0.22 | 99.4% | 95.7% |  |
| C=CC(=O)NC1CCCN(C(=O)OC)C1 (stereo not shown) [PCM-0102526] | 90.7% | 0 | 0 | 0 | 0.22 | 106% | 101% |  |
| C=CC(=O)NCc1ccc2c(c1)C(C)(C)C(=O)N2 [PCM-0102570] | 92% | 0 | 0 | 0 | 0.21 | 110% | 107% |  |
| C=CC(=O)N1CCNC(=O)C1c1cccs1 (stereo not shown) [PCM-0102597] | 81% | 0 | 0 | 0 | 0 | 113% | 103% |  |
| O=C(CCl)Nc1cc2c(cc1Cl)C(=O)c1ccccc1C2=O [PCM-0102757] | 22.5% | 0 | 0.12 | 0 | 0 | 58.4% | 1.4% |  |
| O=C(CCl)NC1CCSC1=O (stereo not shown) [PCM-0103062] | 90.7% | 0 | 0 | 0 |  | 88.2% | 97.6% | 0 |
| Cl.O=C(CCl)N1CCN(Cc2ccccc2)CC1 [PCM-0103063] | 60.1% | 0 | 0.07 | 0 |  | 81.1% | 72.1% | 0.35 |
| O=C(CCl)N1CCC(c2nc3ccccc3s2)CC1 [PCM-0103068] | 15.4% | 0 | 0.65 | 0 |  | 46% | 17.4% | 0 |
| C=CC(=O)N1CCCC(c2nc3c(s2)CCCC3)C1 (stereo not shown) [PCM-0103069] | 79.4% | 0 | 0 | 0 |  | 104% | 98.5% | 0 |
| COCC(=O)NNC(=O)CCl [PCM-0103070] | 97.1% | 0 | 0 | 0 |  | 85.8% | 95.3% | 0 |
| O=C(CCl)N1CCCc2cccc(F)c21 [PCM-0103071] | 25.1% | 0 | 0.4 | 0 |  | 65.9% | 62.4% | 0 |
| C=CC(=O)NC(c1cnn(C)c1)C(F)(F)F (stereo not shown) [PCM-0103073] | 94.4% | 0 | 0 | 0 |  | 107% | 99.5% | 0 |
| C=CC(=O)N1CCc2c(ncn(CC)c2=O)C1 [PCM-0103074] | 100% | 0 | 0 | 0 |  | 115% | 101% | 0 |
| C=CC(=O)NCc1snnc1C [PCM-0103079] | 97% | 0 | 0 | 0 |  | 102% | 104% | 0 |
| O=C(CCl)NCc1ccc(Cl)s1 [PCM-0103080] | 73% | 0 | 0 | 0 |  | 61.2% | 79.6% | 0.79 |
| Cc1ccc(N(C(=O)CCl)C2C=CS(=O)(=O)C2)cc1C (stereo not shown) [PCM-0103082] | 4.1% | 0 | 0.15 | 0 |  | 10.5% | 19.6% | 0 |
| C=CC(=O)NC1CCCn2nc(C)nc21 (stereo not shown) [PCM-0103083] | 115% | 0 | 0 | 0 |  | 116% | 105% | 0 |
| CCN(C(=O)CCl)C1=CCCCC1 [PCM-0103084] | 120% | 0.19 | 0 | 0 |  | 97.8% | 106% | 0 |

From article PMC6556873, “Rapid Covalent-Probe Discovery by Electrophile-Fragment Screening” (Journal of the American Chemical Society, 2019)
